In brackets after ≈: the same amount, converted by molar mass.

Holding throughout (assay type): functional
The test system of experiment [1] is Cryptococcus neoformans. The experiment is described as follows: Antifungal activity against Cryptococcus neoformans ATCC 36556 by broth microdilution method.
Experiment [2] has as its system Candida tropicalis. Nature of the experiment: Antifungal activity against Candida tropicalis ATCC 13803 by broth microdilution method.
The subject of experiment [3] is Clavispora lusitaniae. Nature of the experiment: Antifungal activity against Candida lusitaniae ATCC 42720 by broth microdilution method.
The subject of experiment [4] is Aspergillus fumigatus. The experiment is described as follows: Antifungal activity against Aspergillus fumigatus ATCC 16424 by broth microdilution method.
Experiment [5] relates to Pichia kudriavzevii. Nature of the experiment: Antifungal activity against Candida krusei ATCC 6258 by broth microdilution method.
Experiment [6] relates to Candida albicans. The experiment is described as follows: Antifungal activity against Candida albicans ATCC 10231 by broth microdilution method.
The subject of experiment [7] is Aspergillus terreus. Nature of the experiment: Antifungal activity against Aspergillus terreus ATCC 46941 by broth microdilution method.

Regarding `COc1ccc2c(Cc3ccc(OC(F)(F)F)cc3)c3[n+](cc2c1OC)CCc1cc2c(cc1-3)OCO2.[Cl-]`, the MIC is 16 µg/mL in experiment [1]; 8 µg/mL in experiment [2]; 32 µg/mL in experiment [3]; greater than 128 µg/mL in experiment [4]; 16 µg/mL in experiment [5]; 16 µg/mL in experiment [6]. This compound registered an MIC in experiment [7] greater than 128 µg/mL.

In the case of `COc1ccc2cc3[n+](cc2c1OC)CCc1cc2c(cc1-3)OCO2.[Cl-]` [BERBERINE CHLORIDE], the MIC in experiment [1] was 64 µg/mL; in experiment [2], 16 µg/mL; in experiment [3], greater than 128 µg/mL; in experiment [4] it was greater than 128 µg/mL; in experiment [5] it was 32 µg/mL; in experiment [6], 128 µg/mL. The MIC in experiment [7] is greater than 128 µg/mL.

As for `COc1ccc2c(Cc3cc(F)c(F)c(F)c3)c3[n+](cc2c1OC)CCc1cc2c(cc1-3)OCO2.[Cl-]`, the minimal inhibitory concentration (MIC) was 64 µg/mL in experiment [1]; 64 µg/mL in experiment [2]; 128 µg/mL in experiment [3]; greater than 128 µg/mL in experiment [4]; 64 µg/mL in experiment [5]; 128 µg/mL in experiment [6]. Moreover, the minimal inhibitory concentration (MIC) in experiment [7] is greater than 128 µg/mL.

As to `COc1ccc2c(Cc3cc(F)cc(F)c3)c3[n+](cc2c1O)CCc1cc2c(cc1-3)OCO2.[Cl-]`, the MIC is 32 µg/mL in experiment [1]; 128 µg/mL in experiment [2]; 128 µg/mL in experiment [3]; greater than 128 µg/mL in experiment [4]; 128 µg/mL in experiment [5]; greater than 128 µg/mL in experiment [6]. Further, the MIC in experiment [7] is greater than 128 µg/mL.

For the compound `COc1ccc2c(Cc3ccc(C(C)(C)C)cc3)c3[n+](cc2c1O)CCc1cc2c(cc1-3)OCO2.[Cl-]`, the MIC in experiment [1] is 8 µg/mL; in experiment [2] it was 16 µg/mL; in experiment [3], 8 µg/mL; in experiment [4] it was greater than 128 µg/mL; in experiment [5], 32 µg/mL; in experiment [6], 16 µg/mL. In experiment [7], this compound yielded an MIC greater than 128 µg/mL.

With `COc1cc(Cc2c3[n+](cc4c(OC)c(OC)ccc24)CCc2cc4c(cc2-3)OCO4)cc(OC)c1OC.[Cl-]`, the MIC in experiment [1] was 32 µg/mL; in experiment [2], 64 µg/mL; in experiment [3] it was 128 µg/mL; in experiment [4] it was greater than 128 µg/mL; in experiment [5], 64 µg/mL; in experiment [6] it was 128 µg/mL. Moreover, the MIC in experiment [7] was greater than 128 µg/mL.

Take `COc1ccc2c(Cc3ccc(C(F)(F)F)cc3)c3[n+](cc2c1OC)CCc1cc2c(cc1-3)OCO2.[Cl-]`: the MIC was 16 µg/mL in experiment [1]; 16 µg/mL in experiment [2]; 32 µg/mL in experiment [3]; greater than 128 µg/mL in experiment [4]; 32 µg/mL in experiment [5]; 32 µg/mL in experiment [6]. Further, the MIC in experiment [7] is greater than 128 µg/mL.

`COc1ccc2c(Cc3ccc(C(C)C)cc3)c3[n+](cc2c1OC)CCc1cc2c(cc1-3)OCO2.[Cl-]`: the MIC in experiment [1] is 4 µg/mL; in experiment [2], 1 µg/mL; in experiment [3] it was 8 µg/mL; in experiment [4] it was 64 µg/mL; in experiment [5], 4 µg/mL; in experiment [6], 4 µg/mL. In addition, the MIC in experiment [7] was 32 µg/mL.

`COc1ccc2c(Cc3ccc(C(F)(F)F)cc3)c3[n+](cc2c1O)CCc1cc2c(cc1-3)OCO2.[Cl-]`: the MIC in experiment [1] was 16 µg/mL; in experiment [2], 64 µg/mL; in experiment [3] it was 64 µg/mL; in experiment [4], greater than 128 µg/mL; in experiment [5] it was 64 µg/mL; in experiment [6] it was 128 µg/mL. In addition, the MIC in experiment [7] was greater than 128 µg/mL.

Regarding `C[C@@H]1[C@H](O)[C@@H](C)/C=C/C=C/C=C/C=C/C=C/C=C/C=C/[C@H](O[C@@H]2O[C@H](C)[C@@H](O)[C@H](N)[C@@H]2O)C[C@@H]2O[C@](O)(C[C@@H](O)C[C@@H](O)[C@H](O)CC[C@@H](O)C[C@@H](O)CC(=O)O[C@H]1C)C[C@H](O)[C@H]2C(=O)O` [AMPHOTERICIN B], the MIC was determined as 0.25 µg/mL (≈ 0.271 µM) in experiment [1]; 0.5 µg/mL (≈ 0.541 µM) in experiment [2]; 1 µg/mL (≈ 1.08 µM) in experiment [3]; 1 µg/mL (≈ 1.08 µM) in experiment [4]; 0.5 µg/mL (≈ 0.541 µM) in experiment [5]; 0.5 µg/mL (≈ 0.541 µM) in experiment [6]. Besides, in experiment [7], inhibition of growth (MIC) required 16 µg/mL (≈ 17.3 µM).

Regarding `COc1ccc2c(Cc3ccc(C(C)C)cc3)c3[n+](cc2c1O)CCc1cc2c(cc1-3)OCO2.[Cl-]`, the MIC in experiment [1] is 4 µg/mL; in experiment [2] it was 16 µg/mL; in experiment [3] it was 8 µg/mL; in experiment [4], greater than 128 µg/mL; in experiment [5] it was 16 µg/mL; in experiment [6], 16 µg/mL. Besides, the MIC in experiment [7] was greater than 128 µg/mL.

Regarding `COc1ccc2c(Cc3ccc(OC(F)(F)F)cc3)c3[n+](cc2c1O)CCc1cc2c(cc1-3)OCO2.[Cl-]`, the MIC in experiment [1] is 16 µg/mL; in experiment [2], 32 µg/mL; in experiment [3] it was 32 µg/mL; in experiment [4] it was greater than 128 µg/mL; in experiment [5], 32 µg/mL; in experiment [6], 64 µg/mL. In experiment [7], this compound registered an MIC greater than 128 µg/mL.

For the compound `COc1ccc2cc3[n+](cc2c1O)CCc1cc2c(cc1-3)OCO2` [BERBERRUBINE], the MIC in experiment [1] is greater than 128 µg/mL; in experiment [2] it was 128 µg/mL; in experiment [3], greater than 128 µg/mL; in experiment [4], greater than 128 µg/mL; in experiment [5] it was greater than 128 µg/mL; in experiment [6], greater than 128 µg/mL. The compound further returned an MIC in experiment [7] greater than 128 µg/mL.

Take `COc1ccc2c(Cc3cc(F)c(F)c(F)c3)c3[n+](cc2c1O)CCc1cc2c(cc1-3)OCO2.[Cl-]`: the MIC in experiment [1] is 64 µg/mL; in experiment [2], 128 µg/mL; in experiment [3], 128 µg/mL; in experiment [4] it was greater than 128 µg/mL; in experiment [5], 128 µg/mL; in experiment [6] it was greater than 128 µg/mL. The compound also had an MIC in experiment [7] greater than 128 µg/mL.

`COc1ccc2c(Cc3cc(F)cc(F)c3)c3[n+](cc2c1OC)CCc1cc2c(cc1-3)OCO2.[Cl-]`: the MIC in experiment [1] was 32 µg/mL; in experiment [2] it was 32 µg/mL; in experiment [3] it was 64 µg/mL; in experiment [4], greater than 128 µg/mL; in experiment [5], 64 µg/mL; in experiment [6], 128 µg/mL. The MIC in experiment [7] is greater than 128 µg/mL.

As to `COc1ccc2c(Cc3ccc(C(C)(C)C)cc3)c3[n+](cc2c1OC)CCc1cc2c(cc1-3)OCO2.[Cl-]`, the MIC in experiment [1] is 4 µg/mL; in experiment [2] it was 2 µg/mL; in experiment [3], 8 µg/mL; in experiment [4], 64 µg/mL; in experiment [5], 8 µg/mL; in experiment [6], 4 µg/mL. In experiment [7], this compound displayed a minimum inhibitory concentration (MIC) of 64 µg/mL.

Regarding `COc1cc(Cc2c3[n+](cc4c(O)c(OC)ccc24)CCc2cc4c(cc2-3)OCO4)cc(OC)c1OC.[Cl-]`, the MIC in experiment [1] was 32 µg/mL; in experiment [2] it was 128 µg/mL; in experiment [3], 128 µg/mL; in experiment [4], greater than 128 µg/mL; in experiment [5], greater than 128 µg/mL; in experiment [6], greater than 128 µg/mL. In addition, the minimal inhibitory concentration (MIC) in experiment [7] was greater than 128 µg/mL.

Values taken from ChEMBL document CHEMBL1146003, “Synthesis of 13-(substituted benzyl) berberine and berberrubine derivatives as antifungal agents” (2006).
